Measurements as given in the NIST ThermoML archive (doi:10.1016/j.jct.2019.06.027).

Columns and labels:
[1] = refractive index (Na D-line) (dimensionless); conditions: 101.33 kPa, Liquid, Standard Abbe refractometry
[2] = for surface tension liquid-gas: Maximal bubble pressure; for mass density: 101.33 kPa, Liquid, Vibrating tube method

CCOCCn1cc[n+](C)c1.[Cl-] [1-(2-ethoxyethyl)-3-methylimidazolium chloride]
Conditions | mass density, [2] [kg/m3] | refractive index, [1] | surface tension liquid-gas, [2] [mN/m]
288.15 K | 1143.13 | 1.5269 | 47.8
293.15 K | 1139.98 | 1.5255 | 47.3
298.15 K | 1136.83 | 1.524 | 46.9
303.15 K | 1133.69 | 1.5225 | 46.5
308.15 K | 1130.57 | 1.5206 | 46
313.15 K | 1127.45 | 1.5184 | 45.6
318.15 K | 1124.37 | 1.5159 | 45.2
323.15 K | 1121.28 | 1.5142 | 44.8
328.15 K | 1118.21 | 1.5119 | 44.3

CCOCCn1cc[n+](C)c1.[Br-] [1-(2-ethoxyethyl)-3-methylimidazolium bromide]
Conditions | mass density, [2] [kg/m3] | refractive index, [1] | surface tension liquid-gas, [2] [mN/m]
288.15 K | 1360.32 | 1.5473 | 50.9
293.15 K | 1356.56 | 1.5458 | 50.5
298.15 K | 1352.79 | 1.5441 | 50.2
303.15 K | 1349.05 | 1.5426 | 49.8
308.15 K | 1345.33 | 1.5409 | 49.5
313.15 K | 1341.63 | 1.5391 | 49.2
318.15 K | 1337.99 | 1.5376 | 48.9
323.15 K | 1334.35 | 1.5357 | 48.6
328.15 K | 1330.24 | 1.5341 | 48.3

COCCn1cc[n+](C)c1.[Cl-] [1-(2-methoxyethyl)-3-methylimidazolium chloride]
Conditions | mass density, [2] [kg/m3] | refractive index, [1] | surface tension liquid-gas, [2] [mN/m]
288.15 K | 1168.6 | 1.5201 | 49.6
293.15 K | 1165.46 | 1.5185 | 49.2
298.15 K | 1162.31 | 1.516 | 48.7
303.15 K | 1159.17 | 1.5142 | 48.4
308.15 K | 1156.04 | 1.5121 | 48
313.15 K | 1152.91 | 1.5103 | 47.6
318.15 K | 1149.78 | 1.5083 | 47.1
323.15 K | 1146.63 | 1.5069 | 46.7
328.15 K | 1143.27 | 1.5046 | 46.2
